Biological target: T1, human apo-sGC (sGCα1 / mutant sGCβ1H105F) (Homo sapiens, UniProt Q02153, H105F)
T1 construct: His tag; made in house; host or cells: Sf9 cells infected with recombinant baculoviruses (provided by E. Martin); sonicated lysate, supernatant used unpurified
T1 sequence (Q02153 1-619 H105F): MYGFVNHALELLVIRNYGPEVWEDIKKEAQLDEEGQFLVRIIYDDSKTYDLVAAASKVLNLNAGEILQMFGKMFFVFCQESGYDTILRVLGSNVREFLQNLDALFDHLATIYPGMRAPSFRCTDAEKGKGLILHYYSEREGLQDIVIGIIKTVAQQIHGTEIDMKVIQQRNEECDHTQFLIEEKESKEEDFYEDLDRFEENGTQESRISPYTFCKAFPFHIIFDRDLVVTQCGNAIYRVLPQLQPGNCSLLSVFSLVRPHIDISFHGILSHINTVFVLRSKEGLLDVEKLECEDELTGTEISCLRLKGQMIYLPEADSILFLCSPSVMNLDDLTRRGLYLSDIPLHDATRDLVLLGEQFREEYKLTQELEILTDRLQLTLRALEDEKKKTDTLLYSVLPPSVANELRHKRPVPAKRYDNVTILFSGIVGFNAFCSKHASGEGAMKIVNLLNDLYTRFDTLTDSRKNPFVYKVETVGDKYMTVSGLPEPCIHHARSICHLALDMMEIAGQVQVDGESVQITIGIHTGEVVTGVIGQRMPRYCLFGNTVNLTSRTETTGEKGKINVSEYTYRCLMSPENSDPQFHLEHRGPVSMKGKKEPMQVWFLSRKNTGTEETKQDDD
T1 sequence (Q02108 1-690 partner): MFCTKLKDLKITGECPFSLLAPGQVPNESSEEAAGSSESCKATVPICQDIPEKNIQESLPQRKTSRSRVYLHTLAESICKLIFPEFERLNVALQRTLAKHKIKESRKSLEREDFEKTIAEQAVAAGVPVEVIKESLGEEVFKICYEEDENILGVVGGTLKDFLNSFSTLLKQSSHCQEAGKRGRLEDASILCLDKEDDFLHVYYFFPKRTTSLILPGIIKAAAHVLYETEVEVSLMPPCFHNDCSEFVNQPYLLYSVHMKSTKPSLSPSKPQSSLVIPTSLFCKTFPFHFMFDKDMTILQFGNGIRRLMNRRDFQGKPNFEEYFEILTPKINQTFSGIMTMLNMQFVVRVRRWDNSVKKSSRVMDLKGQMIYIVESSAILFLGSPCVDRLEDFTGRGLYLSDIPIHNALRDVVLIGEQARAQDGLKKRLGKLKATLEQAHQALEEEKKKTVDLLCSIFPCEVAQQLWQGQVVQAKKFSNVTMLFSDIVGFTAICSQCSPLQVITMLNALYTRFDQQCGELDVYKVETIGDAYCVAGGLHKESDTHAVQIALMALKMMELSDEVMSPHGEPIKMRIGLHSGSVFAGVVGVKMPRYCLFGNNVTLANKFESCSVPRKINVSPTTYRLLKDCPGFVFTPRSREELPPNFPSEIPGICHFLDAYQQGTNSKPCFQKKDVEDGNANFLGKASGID
Assay: sGC activity of human apo-sGC expressed in SF-9 cells
Type: biochemical
Method: To measure sGC activity, cells were stimulated with 250 μM DEA/NO or 10 μM BAY58-2667 for 3 min at 37° C. Thereafter, cells were immediately lysed in 80% ethanol. Cells were scraped and, after evaporation of ethanol, re-suspended in assay buffer and sonicated. Measurement of sGC activity in crude homogenates of mouse tissue was performed as previously described (Nedvetsky et al., Brain Res. 2002; 950(1-2):148-154. doi: 10.1016/50006-8993(02)03015-9).[9] Briefly, all samples were measured as the formation of cGMP at 37° C. during 10 min in a total incubation volume of […] containing 50 mM triethanolamine-HCl (pH 7.4), 3 mM MgCl2, 3 mM glutathione (Carl Roth, Karlsruhe, Germany), 1 mM IBMX, […], 5 mM creatine phosphate, 0.25 mg/ml creatine kinase and 1 mM or 0.5 mM GTP. After adding sGC activator in the absence or presence of the sGC stimulator the reaction was started by application of GTP solution. […] Thereafter the amount of cGMP was subsequently determined by a commercial enzyme immunoassay kit (Enzo Life Sciences, Lorrach, Germany or Biotrend, Cologne, Germany). […]
Recombinant baculoviruses containing the cDNAs for the sGCa1 subunit with a His tag and mutant sGCβ31H105F with a His tag of human sGC were provided by E. Martin (Houston, Tex., USA). […] Protein concentrations were determined by the RC DC protein assay kit (Bio-Rad, Cat. no. 5000122).

Question: Which results are given for Nc1nc(-c2nn(Cc3ccccc3F)c3ncccc23)ncc1C1CC1 [BAY 41-2272, 5-cyclopropyl-2-[1-(2-fluoro-benzyl)-1H-pyrazolo[3,4-b]pyridin-3-yl]-pyrimidin-4-ylamine]?
Answer: sGC activity / cGMP formation in presence of ODQ (10 μM BAY 41-2272 + 10 μM ODQ (FIG. 8)): improves the formation of cGMP; sGC activity / cGMP production (10 μM BAY 41-2272 alone (FIG. 8)): activated and cGMP is (increasingly) produced
